Measurements published in BindingDB's records for doi:10.1016/j.bmc.2006.09.052 (Kirin Brewery, 2006).

Assay: Inhibition of MCP1-induced cell migration in U937 cells expressing CCR2 by chemotaxis assay

c1cc(CN2CCCC(Nc3ccc4[nH]ncc4c3)C2)cs1 (stereo unspecified) [N-(1-(thiophen-3-ylmethyl)piperidin-3-yl)-1H-indazol-5-amine]
IC50: 1 µM

O=C(NCc1c(F)cccc1F)Nc1ccc2[nH]ncc2c1 [N-(2,6-difluorobenzyl)-N0-(1H-5-indazolyl)urea]
IC50: > 100 µM

O=C(NCc1ccc(Cl)cc1Cl)Nc1ccc2[nH]ncc2c1 [N-(2,4-dichlorobenzyl)-N0-(1H-5-indazolyl)urea]
IC50: > 100 µM

O=C(NCc1ccccc1)Nc1ccc2[nH]ncc2c1 [1-benzyl-3-(1H-indazol-5-yl)urea]
IC50: > 100 µM

Fc1ccc(CN2CCCC(Nc3ccc4[nH]ncc4c3)C2)cc1F (stereo unspecified) [N-(1-(3,4-difluorobenzyl)piperidin-3-yl)-1H-indazol-5-amine]
IC50: 1 µM

Nc1ccc(CN2CCCC(Nc3ccc4[nH]ncc4c3)C2)cc1 (stereo unspecified) [N-(1-(4-aminobenzyl)piperidin-3-yl)-1H-indazol-5-amine]
IC50: 2 µM

O=C(Nc1ccc2[nH]ncc2c1)C1CCCN(Cc2ccccc2)C1 (stereo unspecified) [1-benzyl-N-(1H-indazol-5-yl)piperidine-3-carboxamide]
IC50: 1 µM

O=[N+]([O-])c1cccc(CN2CCCC(Nc3ccc4[nH]ncc4c3)C2)c1 (stereo unspecified) [N-[1-(3-nitrobenzyl)-3-piperidyl]-N-(1H-5-indazolyl)amine]
IC50: 19 µM

Clc1cccc(CN2CCC(Nc3ccc4[nH]ncc4c3)C2)c1 (stereo unspecified) [N-[1-(3-chlorobenzyl)-3-pyrrolidyl]-N-(1H-5-indazolyl)amine]
IC50: 5 µM

Clc1ccccc1CN1CCC(Nc2ccc3[nH]ncc3c2)C1 (stereo unspecified) [N-[1-(2-chlorobenzyl)-3-pyrrolidyl]-N-(1H-5-indazolyl)amine]
IC50: 7 µM

c1coc(CN2CCCC(Nc3ccc4[nH]ncc4c3)C2)c1 (stereo unspecified) [N-(1-(furan-2-ylmethyl)piperidin-3-yl)-1H-indazol-5-amine]
IC50: 5 µM

COc1cc(CN2CCCC(Nc3ccc4[nH]ncc4c3)C2)cc(OC)c1 (stereo unspecified) [N-(1-(3,5-dimethoxybenzyl)piperidin-3-yl)-1H-indazol-5-amine]
IC50: > 30 µM

c1cc(CN2CCCC(Nc3ccc4[nH]ncc4c3)C2)ccn1 (stereo unspecified) [N-(1-(pyridin-4-ylmethyl)piperidin-3-yl)-1H-indazol-5-amine]
IC50: > 30 µM

Fc1ccc(CN2CCCC(Nc3ccc4[nH]ncc4c3)C2)cc1 (stereo unspecified) [N-(1-(4-fluorobenzyl)piperidin-3-yl)-1H-indazol-5-amine]
IC50: 4 µM

c1ccc(CN2CCC(Nc3ccc4[nH]ncc4c3)CC2)cc1 [N-(1-benzylpiperidin-4-yl)-1H-indazol-5-amine]
IC50: 30 µM

Nc1ccccc1CN1CCCC(Nc2ccc3[nH]ncc3c2)C1 (stereo unspecified) [N-[1-(2-aminobenzyl)-3-piperidyl]-N-(1H-5-indazolyl)amine]
IC50: 1 µM

Cc1ccc(CN2CCCC(Nc3ccc4[nH]ncc4c3)C2)cc1 (stereo unspecified) [N-(1-(4-methylbenzyl)piperidin-3-yl)-1H-indazol-5-amine]
IC50: 1 µM

c1cncc(CN2CCCC(Nc3ccc4[nH]ncc4c3)C2)c1 (stereo unspecified) [N-[1-(3-pyridylmethyl)-3-piperidyl]-N-(1H-5-indazolyl)amine]
IC50: 20 µM

O=[N+]([O-])c1ccc(CN2CCCC(Nc3ccc4[nH]ncc4c3)C2)cc1 (stereo unspecified) [N-(1-(4-nitrobenzyl)piperidin-3-yl)-1H-indazol-5-amine]
IC50: 19 µM

c1csc(CN2CCCC(Nc3ccc4[nH]ncc4c3)C2)c1 (stereo unspecified) [N-(1-(thiophen-2-ylmethyl)piperidin-3-yl)-1H-indazol-5-amine]
IC50: 6 µM

Clc1ccc(CN2CCC(Nc3ccc4[nH]ncc4c3)C2)cc1 (stereo unspecified) [N-[1-(4-chlorobenzyl)-3-pyrrolidyl]-N-(1H-5-indazolyl)amine]
IC50: 1 µM

c1ccc(CN2CCC(Nc3ccc4[nH]ncc4c3)C2)cc1 (stereo unspecified) [N-(1-benzylpyrrolidin-3-yl)-1H-indazol-5-amine]
IC50: 10 µM

c1c[nH]c(CN2CCCC(Nc3ccc4[nH]ncc4c3)C2)c1 (stereo unspecified) [N-[1-(1H-2-pyrrolylmethyl)-3-piperidyl]-N-(1H-5-indazolyl)amine]
IC50: 10 µM

COc1ccc(CN2CCCC(Nc3ccc4[nH]ncc4c3)C2)cc1 (stereo unspecified) [N-(1-(4-methoxybenzyl)piperidin-3-yl)-1H-indazol-5-amine]
IC50: 1 µM

c1ccc(CN2CCCC(Oc3ccc4[nH]ncc4c3)C2)cc1 (stereo unspecified) [1-benzyl-3-piperidyl-(1H-5-indazolyl)ether]
IC50: 1 µM

Nc1cccc(CN2CCCC(Nc3ccc4[nH]ncc4c3)C2)c1 (stereo unspecified) [N-[1-(3-aminobenzyl)-3-piperidyl]-N-(1H-5-indazolyl)amine]
IC50: 3 µM

Clc1ccc(CN2CCCC(Nc3ccc4[nH]ncc4c3)C2)cc1 (stereo unspecified) [N-(1-(4-chlorobenzyl)piperidin-3-yl)-1H-indazol-5-amine]
IC50: 1 µM

Clc1cccc(CN2CCCC(Nc3ccc4[nH]ncc4c3)C2)c1 (stereo unspecified) [N-[1-(3-chlorobenzyl)-3-piperidyl]-N-(1H-5-indazolyl)amine]
IC50: 8 µM

c1ccc(CN2CCC(Oc3ccc4[nH]ncc4c3)CC2)cc1 [1-benzyl-4-piperidyl-(1H-5-indazolyl)ether]
IC50: 6 µM

c1ccc(CN2CCCC(Nc3ccc4[nH]ncc4c3)C2)cc1 (stereo unspecified) [N-(1-benzylpiperidin-3-yl)-1H-indazol-5-amine]
IC50: 2 µM

Clc1ccccc1CN1CCCC(Nc2ccc3[nH]ncc3c2)C1 (stereo unspecified) [N-[1-(2-chlorobenzyl)-3-piperidyl]-N-(1H-5-indazolyl)amine]
IC50: 8 µM
